# Measurements published in patent US9808448B2, “Pharmaceutical compounds and use of same in cancer and tauopathies” (THE REGENTS OF THE UNIVERSITY OF MICHIGAN, priority 2013, dated 2017).
# Like-named read-outs stand apart in the source and are kept apart here.
# Columns and labels:
# Assay type in all cases: cell-based
# MCF-7 = test: Cancer activity screen (MTT cell survival), MCF-7; settings: Homo sapiens, MCF7
# MEF (C57BL/6) = test: Cell survival, MEF; settings: Mus musculus, read-out: IC50/μM MEF (C57BL/6)
# HeLa = test: Cancer activity screen (MTT cell survival), HeLa; settings: Homo sapiens
# MDA-MB-231 = test: Cancer activity screen (MTT cell survival), MDA-MB-231; settings: Homo sapiens
# MCF-10A = test: Cancer activity screen (MTT cell survival), MCF-10A; settings: Homo sapiens
smiles,measurement,setting,value
CCn1c(=O)/c(=C2\Sc3ccccc3N2C)s/c1=C\c1cccc[n+]1Cc1ccccc1,IC50,MCF-7,1.49 ± 0.22 µM
same,IC50,MEF (C57BL/6),14.6 ± 1.17 µM
same,IC50,HeLa,3.29 ± 0.36 µM
same,IC50,MDA-MB-231,1.02 ± 0.2 µM
same,IC50,MCF-10A,1.46 ± 0.15 µM
CCn1c(=O)/c(=C2\Sc3ccccc3N2C)s/c1=C\c1cccc[n+]1Cc1ccc(F)c(F)c1,IC50,MCF-7,9.6 ± 2.98 µM
same,IC50,HeLa,12.3 ± 1.21 µM
same,IC50,MDA-MB-231,4.4 ± 0.39 µM
same,IC50,MCF-10A,3.06 ± 0.38 µM
CCn1c(=O)/c(=C2\Sc3c(cccc3C(F)(F)F)N2C)s/c1=C\c1cccc[n+]1Cc1ccc(F)c(F)c1,IC50,MCF-7,5.35 ± 1.54 µM
same,IC50,HeLa,8.47 ± 0.89 µM
same,IC50,MDA-MB-231,6.16 ± 1.33 µM
same,IC50,MCF-10A,4.77 ± 0.48 µM
CCn1c(=O)/c(=C2\Sc3c(cccc3C(F)(F)F)N2C)s/c1=C\c1cccc[n+]1Cc1ccccc1,IC50,MCF-7,2.31 ± 0.43 µM
same,IC50,HeLa,21.1 ± 3.96 µM
same,IC50,MDA-MB-231,3.46 ± 0.39 µM
same,IC50,MCF-10A,2.45 ± 0.26 µM
CCn1c(=O)/c(=C2\Sc3ccc(OC)cc3N2C)s/c1=C\c1cccc[n+]1Cc1ccccc1,IC50,MCF-7,1.6 ± 0.36 µM
same,IC50,HeLa,3.63 ± 0.32 µM
same,IC50,MDA-MB-231,1.43 ± 0.19 µM
same,IC50,MCF-10A,1.74 ± 0.19 µM
CCn1c(=O)/c(=C2\Sc3cccc(Cl)c3N2C)s/c1=C\c1cccc[n+]1Cc1ccccc1,IC50,MCF-7,1.37 ± 0.27 µM
same,IC50,MEF (C57BL/6),6.46 ± 0.7 µM
same,IC50,HeLa,3.7 ± 0.35 µM
same,IC50,MDA-MB-231,0.72 ± 0.18 µM
same,IC50,MCF-10A,0.61 ± 0.09 µM
CN1/C(=c2\s/c(=C\c3cccc[n+]3Cc3ccccc3)n(Cc3ccccc3)c2=O)Sc2ccccc21,IC50,MCF-7,2.15 ± 0.68 µM
same,IC50,HeLa,5.89 ± 0.87 µM
same,IC50,MDA-MB-231,1.8 ± 0.34 µM
same,IC50,MCF-10A,1.34 ± 0.16 µM
CCn1c(=O)/c(=C2\Sc3c(ccc(F)c3F)N2C)s/c1=C\c1cccc[n+]1Cc1ccccc1,IC50,MCF-7,2.1 ± 0.43 µM
same,IC50,HeLa,6 ± 0.64 µM
same,IC50,MDA-MB-231,2.64 ± 0.35 µM
same,IC50,MCF-10A,1.36 ± 0.16 µM
CN1/C(=c2\s/c(=C\c3cc(Cl)cc[n+]3C)n(Cc3ccccc3)c2=O)Sc2ccccc21,IC50,MCF-7,2.81 ± 1.01 µM
same,IC50,MDA-MB-231,2.83 ± 0.26 µM
same,IC50,MCF-10A,1.12 ± 0.04 µM
CCn1c(=O)/c(=C2\Sc3ccccc3N2C)s/c1=C\c1ccc(F)c[n+]1C,IC50,MCF-7,> 30 µM
same,IC50,HeLa,15 ± 0.98 µM
same,IC50,MDA-MB-231,7.82 ± 0.78 µM
same,IC50,MCF-10A,5.34 ± 0.26 µM
CCn1c(=O)/c(=C2\Sc3cccc(F)c3N2C)s/c1=C\c1cccc[n+]1Cc1ccc(CNC(=O)OC(C)(C)C)cc1,IC50,MCF-7,1.39 ± 0.24 µM
same,IC50,HeLa,7.6 ± 0.99 µM
same,IC50,MDA-MB-231,1.99 ± 0.33 µM
CCn1c(=O)/c(=C2\Sc3ccc(Cl)cc3N2C)s/c1=C\c1scc[n+]1Cc1ccccc1,IC50,MCF-7,0.83 ± 0.23 µM
same,IC50,HeLa,4.32 ± 0.43 µM
same,IC50,MDA-MB-231,0.62 ± 0.1 µM
CCn1c(=O)/c(=C2\Sc3cc(Cl)ccc3N2C)s/c1=C\c1scc[n+]1Cc1ccccc1,IC50,MCF-7,0.71 ± 0.22 µM
same,IC50,MEF (C57BL/6),23.9 ± 1.28 µM
same,IC50,HeLa,0.83 ± 0.2 µM
same,IC50,MDA-MB-231,0.39 ± 0.03 µM
CCn1c(=O)/c(=C2\Sc3c(Cl)cccc3N2C)s/c1=C\c1scc[n+]1Cc1ccccc1,IC50,MCF-7,1.05 ± 0.79 µM
same,IC50,MEF (C57BL/6),> 30 µM
same,IC50,HeLa,3.93 ± 0.51 µM
same,IC50,MDA-MB-231,0.55 ± 0.05 µM
CCN1C(=O)/C(=C2\Sc3ccccc3N2C)S/C1=N\c1ccccc1,IC50,MEF (C57BL/6); second table,> 50 µM
same,IC50,MDA-MB-231; second table,> 30 µM
C=CCn1c(=O)/c(=C2\Sc3cccc(F)c3N2C)s/c1=C\c1ccncc1,IC50,MDA-MB-231; second table,0.38 ± 0.03 µM
C=CCn1c(=O)/c(=C2\Sc3c(F)cccc3N2C)s/c1=C\c1ccncc1,IC50,MEF (C57BL/6); second table,> 50 µM
same,IC50,MDA-MB-231; second table,3.07 ± 0.73 µM
CCN1C(=O)/C(=C2\Sc3cc(C(F)(F)F)ccc3N2C)S/C1=N\c1ccccc1,IC50,MEF (C57BL/6); second table,> 50 µM
same,IC50,MDA-MB-231; second table,16.2 ± 1.12 µM
COC(=O)Cn1c(=O)/c(=C2\Sc3ccccc3N2C)s/c1=C\c1ccccn1,IC50,MEF (C57BL/6); second table,> 50 µM
CCN1C(=O)/C(=C2\Sc3cc(F)ccc3N2C)S/C1=N\c1ccccc1,IC50,MEF (C57BL/6); second table,> 50 µM
same,IC50,MDA-MB-231; second table,> 30 µM
CCN1C(=O)/C(=C2\Sc3c(F)cccc3N2C)S/C1=N\c1ccccc1,IC50,MEF (C57BL/6); second table,> 50 µM
same,IC50,MDA-MB-231; second table,17.7 ± 2.85 µM
CCN1C(=O)/C(=C2\Sc3cccc(F)c3N2C)S/C1=N\c1ccccc1,IC50,MEF (C57BL/6); second table,> 50 µM
same,IC50,MDA-MB-231; second table,> 30 µM
CCn1c(=O)/c(=C2\Sc3cc(OC(F)(F)F)ccc3N2C)s/c1=C\c1cccc[n+]1Cc1ccccc1,IC50,MDA-MB-231; second table,0.71 ± 0.12 µM
CCn1c(=O)/c(=C2\Sc3cc(C#N)ccc3N2C)s/c1=C\c1cccc[n+]1Cc1ccccc1,IC50,MDA-MB-231; second table,1.4 ± 0.1 µM
CCn1c(=O)/c(=C2\Sc3cc(OC(F)(F)F)ccc3N2C)s/c1=C\c1ccccn1,IC50,MEF (C57BL/6); second table,> 50 µM
same,IC50,MDA-MB-231; second table,4.4 ± 0.5 µM
CCn1c(=O)/c(=C2\Sc3cc(Cl)ccc3N2C)s/c1=C\c1scc[n+]1Cc1ccc([N+](=O)[O-])o1,IC50,MDA-MB-231; second table,> 30 µM
CCn1c(=O)/c(=C2\Sc3cc(Cl)ccc3N2C)s/c1=C\c1scc[n+]1Cc1ccc(C(F)(F)F)o1,IC50,MDA-MB-231; second table,0.12 ± 0.02 µM
CCn1c(=O)/c(=C2\Sc3cc(C#N)ccc3N2C)s/c1=C\c1ccccn1,IC50,MDA-MB-231; second table,22.3 ± 4.61 µM
CCn1c(=O)/c(=C2\Sc3cc(Cl)ccc3N2C)s/c1=C\c1scc[n+]1Cc1ccc(F)cc1,IC50,MDA-MB-231; second table,1.07 ± 0.19 µM
CCn1c(=O)/c(=C2\Sc3cc(Cl)ccc3N2C)s/c1=C\c1scc[n+]1Cc1cccc(F)c1,IC50,MDA-MB-231; second table,1.01 ± 0.16 µM
CCn1c(=O)/c(=C2\Sc3cc(Cl)ccc3N2C)s/c1=C\c1scc[n+]1Cc1ccc(C(F)(F)F)cc1,IC50,MDA-MB-231; second table,1.2 ± 0.15 µM
CCn1c(=O)/c(=C2\Sc3cc(Cl)ccc3N2C)s/c1=C\c1ccc(C#N)c[n+]1Cc1ccccc1,IC50,MEF (C57BL/6); second table,> 50 µM
same,IC50,MDA-MB-231; second table,1.92 ± 0.16 µM
CCn1c(=O)/c(=C2\Sc3cc(Cl)ccc3N2C)s/c1=C\c1scc[n+]1Cc1ccccc1F,IC50,MDA-MB-231; second table,0.29 ± 0.04 µM
